Biological target: T1, C-X-C chemokine receptor type 2 (Homo sapiens, UniProt P25025)
T1 sequence (P25025 whole entry): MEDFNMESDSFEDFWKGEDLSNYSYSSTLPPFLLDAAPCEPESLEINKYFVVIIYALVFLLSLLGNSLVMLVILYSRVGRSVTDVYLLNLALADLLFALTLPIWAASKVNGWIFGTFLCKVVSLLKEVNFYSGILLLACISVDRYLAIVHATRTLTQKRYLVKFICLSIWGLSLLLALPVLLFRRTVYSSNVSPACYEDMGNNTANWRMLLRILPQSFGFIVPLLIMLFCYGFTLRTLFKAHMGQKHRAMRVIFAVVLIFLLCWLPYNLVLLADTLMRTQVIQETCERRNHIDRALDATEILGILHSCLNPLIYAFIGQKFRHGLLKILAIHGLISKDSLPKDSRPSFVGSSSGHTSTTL
Assay: Displacement of [125I]IL8 from human CXCR2 expressed in CHO cells

Row | IC50 | SMILES
1 | 10 nM | CC(C)Nc1c(Nc2cccc(C(=O)N(C)C)c2O)c(=O)c1=O [2-hydroxy-3-(2-(isopropylamino)-3,4-dioxocyclobut-1-enylamino)-N,N-dimethylbenzamide]
2 | 10 nM | CN(C)C(=O)c1cccc(Nc2c(NC3CCCCC3)c(=O)c2=O)c1O [3-(2-(cyclohexylamino)-3,4-dioxocyclobut-1-enylamino)-2-hydroxy-N,N-dimethylbenzamide]
